# Like-named read-outs stand apart in the source and are kept apart here.
# How the values were obtained:
# Format in all cases: physicochemical
# [1] = pKa of voruciclib malonate
# [2] = Hygroscopicity of voruciclib malonate
# [3] = pH range solubility in biorelevant media
# Protocol: In general, voruciclib was more prone to gel at suspension concentrations >5 mg/mL and solubilities >0.5 mg/mL.
# [4] = Stability of voruciclib malonate Batch 02MEI06-01-107; set-up: key to Organic Impurities by HPLC: RRT 1.05: —: below reporting threshold
# Excerpt: The formulation contains colloidal silicon dioxide. The manufacturing process for this batch was similar to that described in Example 10. Stability study samples were packaged in the containers described in Example 9.
# Gelling in aqueous media = conditions: in water or aqueous buffers across the pH range
# Protocol: Voruciclib can form a gel when dissolved in various media, depending on the other chemicals present. […] In general, voruciclib was more prone to gel at suspension concentrations >5 mg/mL and solubilities >0.5 mg/mL.
structure (smiles),measurement,setting,value
"CN1CC[C@@H](c2c(O)cc(O)c3c(=O)cc(-c4ccc(C(F)(F)F)cc4Cl)oc23)[C@@H]1CO.O=C(O)CC(=O)O [Voruciclib Malonate, (2R,3S)-3-(2-(2-chloro-4-(trifluoromethyl)phenyl)-5,7-dihydroxy-4-oxo-4H-chromen-8-yl)-2-(hydroxymethyl)-1-methylpyrrolidin-1-ium-2-carboxyacetate]",pKa,[1]; first value listed,6.46
same,pKa,[1]; second value listed,9.59
same,pKa,[1]; third value listed,12.1
same,Hygroscopicity,[2],Non-hygroscopic
same,Hygroscopicity,[2]; listed as Form 1,non-hygroscopic
same,solubility,"[3]; FEDGAS biorelevant medium, pH 3, fassgf or other biorelevant, thermodynamic from solid, pH 3.0 (FEDGAS), late stage of stomach emptying, read-out: Solubility",11300 µg/mL
same,solubility,"[3]; FEDGAS biorelevant medium, pH 4.5, fassgf or other biorelevant, thermodynamic from solid, pH 4.5 (FEDGAS), mid stage of stomach emptying, read-out: Solubility",4350 µg/mL
same,solubility,"[3]; FEDGAS biorelevant medium, pH 6, fassgf or other biorelevant, thermodynamic from solid, pH 6.0 (FEDGAS), early stage of stomach emptying, read-out: Solubility",2880 µg/mL
same,solubility,"[3]; FaSSGF biorelevant medium, pH 1.6, fassgf or other biorelevant, thermodynamic from solid, pH 1.6 (FaSSGF), Stomach after glass of water, tested in duplicate, read-out: Solubility",> 13400 µg/mL
same,solubility,"[3]; FaSSIF biorelevant medium, pH 6.5, fassif, thermodynamic from solid, pH 6.5 (FaSSIF), Upper intestine after a glass of water, read-out: Solubility",230 µg/mL
same,solubility,"[3]; FeSSIF biorelevant medium, pH 5, fessif, thermodynamic from solid, pH 5.0 (FeSSIF), Upper intestine after a meal, read-out: Solubility",< 4 µg/mL
same,solubility,"[3]; pH 1.6 (FaSSGF), Stomach after glass of water, tested in duplicate",11050 µg/mL
same,changes observed after storage,[4]; 6-months at 25° C./60% RH or 6-months at 40° C./75% RH,No significant changes
same,Appearance by visual inspection,"[4]; 25° C./60% RH, 1 months",Light
same,"Assay by HPLC (% w/w, as is)","[4]; 25° C./60% RH, 1 months",96.8 % w/w
same,Organic Impurities by HPLC: RRT 0.83,"[4]; 25° C./60% RH, 1 months",0.06 % area
same,Organic Impurities by HPLC: RRT 0.97,"[4]; 25° C./60% RH, 1 months",0.55 % area
same,Organic Impurities by HPLC: RRT 0.99,"[4]; 25° C./60% RH, 1 months",0.59 % area
same,Organic Impurities by HPLC: RRT 1.05,"[4]; 25° C./60% RH, 1 months",0.09 % area
same,Organic Impurities by HPLC: RRT 1.06,"[4]; 25° C./60% RH, 1 months",0.08 % area
same,Purity by HPLC,"[4]; 25° C./60% RH, 1 months",98.6 % area
same,Total Impurities,"[4]; 25° C./60% RH, 1 months",1.38 % area
same,Water Content by KF,"[4]; 25° C./60% RH, 1 months",0.47 % w/w
same,XRPD,"[4]; 25° C./60% RH, 1 months",Crystalline
same,Appearance by visual inspection,"[4]; 25° C./60% RH, 3 months",Light
same,"Assay by HPLC (% w/w, as is)","[4]; 25° C./60% RH, 3 months",97.3 % w/w
same,Organic Impurities by HPLC: RRT 0.83,"[4]; 25° C./60% RH, 3 months",0.06 % area
same,Organic Impurities by HPLC: RRT 0.97,"[4]; 25° C./60% RH, 3 months",0.56 % area
same,Organic Impurities by HPLC: RRT 0.99,"[4]; 25° C./60% RH, 3 months",0.59 % area
same,Organic Impurities by HPLC: RRT 1.05,"[4]; 25° C./60% RH, 3 months",0.06 % area
same,Organic Impurities by HPLC: RRT 1.06,"[4]; 25° C./60% RH, 3 months",0.08 % area
same,Purity by HPLC,"[4]; 25° C./60% RH, 3 months",98.7 % area
same,Total Impurities,"[4]; 25° C./60% RH, 3 months",1.36 % area
same,Water Content by KF,"[4]; 25° C./60% RH, 3 months",0.18 % w/w
same,XRPD,"[4]; 25° C./60% RH, 3 months",Crystalline
same,Appearance by visual inspection,"[4]; 25° C./60% RH, 6 months",Light
same,"Assay by HPLC (% w/w, as is)","[4]; 25° C./60% RH, 6 months",97.7 % w/w
same,Organic Impurities by HPLC: RRT 0.83,"[4]; 25° C./60% RH, 6 months",0.05 % area
same,Organic Impurities by HPLC: RRT 0.97,"[4]; 25° C./60% RH, 6 months",0.52 % area
same,Organic Impurities by HPLC: RRT 0.99,"[4]; 25° C./60% RH, 6 months",0.58 % area
same,Organic Impurities by HPLC: RRT 1.05,"[4]; 25° C./60% RH, 6 months",0.05 % area
same,Organic Impurities by HPLC: RRT 1.06,"[4]; 25° C./60% RH, 6 months",0.08 % area
same,Purity by HPLC,"[4]; 25° C./60% RH, 6 months",98.7 % area
same,Total Impurities,"[4]; 25° C./60% RH, 6 months",1.32 % area
same,Water Content by KF,"[4]; 25° C./60% RH, 6 months",0.36 % w/w
same,XRPD,"[4]; 25° C./60% RH, 6 months",Crystalline
same,Appearance by visual inspection,"[4]; 25° C./60% RH, Initial",Pale
same,"Assay by HPLC (% w/w, as is)","[4]; 25° C./60% RH, Initial",96.9 % w/w
same,Organic Impurities by HPLC: RRT 0.83,"[4]; 25° C./60% RH, Initial",0.06 % area
same,Organic Impurities by HPLC: RRT 0.97,"[4]; 25° C./60% RH, Initial",0.55 % area
same,Organic Impurities by HPLC: RRT 0.99,"[4]; 25° C./60% RH, Initial",0.62 % area
same,Organic Impurities by HPLC: RRT 1.05,"[4]; 25° C./60% RH, Initial",0.15 % area
same,Organic Impurities by HPLC: RRT 1.06,"[4]; 25° C./60% RH, Initial",0.11 % area
same,Purity by HPLC,"[4]; 25° C./60% RH, Initial",98.5 % area
same,Total Impurities,"[4]; 25° C./60% RH, Initial",1.53 % area
same,Water Content by KF,"[4]; 25° C./60% RH, Initial",0.56 % w/w
same,XRPD,"[4]; 25° C./60% RH, Initial",Crystalline
same,Appearance,"[4]; 40° C./75% RH, 1 months",Light
same,Assay by HPLC (% w/w. as is),"[4]; 40° C./75% RH, 1 months",96.4 % w/w
same,Organic Impurities by HPLC: RRT 0.83,"[4]; 40° C./75% RH, 1 months",0.06 % Area
same,Organic Impurities by HPLC: RRT 0.97,"[4]; 40° C./75% RH, 1 months",0.56 % Area
same,Organic Impurities by HPLC: RRT 0.99,"[4]; 40° C./75% RH, 1 months",0.58 % Area
same,Organic Impurities by HPLC: RRT 1.05,"[4]; 40° C./75% RH, 1 months",0.06 % Area
same,Organic Impurities by HPLC: RRT 1.06,"[4]; 40° C./75% RH, 1 months",0.08 % Area
same,Purity by HPLC,"[4]; 40° C./75% RH, 1 months",98.7 % area
same,Total Impurities,"[4]; 40° C./75% RH, 1 months",1.33 % area
same,Water Content by KF,"[4]; 40° C./75% RH, 1 months",0.44 % w/w
same,XRPD,"[4]; 40° C./75% RH, 1 months",Crystalline
same,Appearance,"[4]; 40° C./75% RH, 3 months",Light
same,Assay by HPLC (% w/w. as is),"[4]; 40° C./75% RH, 3 months",97.3 % w/w
same,Organic Impurities by HPLC: RRT 0.83,"[4]; 40° C./75% RH, 3 months",0.06 % Area
same,Organic Impurities by HPLC: RRT 0.97,"[4]; 40° C./75% RH, 3 months",0.56 % Area
same,Organic Impurities by HPLC: RRT 0.99,"[4]; 40° C./75% RH, 3 months",0.59 % Area
same,Organic Impurities by HPLC: RRT 1.05,"[4]; 40° C./75% RH, 3 months",—
same,Organic Impurities by HPLC: RRT 1.06,"[4]; 40° C./75% RH, 3 months",0.08 % Area
same,Purity by HPLC,"[4]; 40° C./75% RH, 3 months",98.7 % area
same,Total Impurities,"[4]; 40° C./75% RH, 3 months",1.29 % area
same,Water Content by KF,"[4]; 40° C./75% RH, 3 months",0.14 % w/w
same,XRPD,"[4]; 40° C./75% RH, 3 months",Crystalline
same,Appearance,"[4]; 40° C./75% RH, 6 months",Light
same,Assay by HPLC (% w/w. as is),"[4]; 40° C./75% RH, 6 months",97.5 % w/w
same,Organic Impurities by HPLC: RRT 0.83,"[4]; 40° C./75% RH, 6 months",0.05 % Area
same,Organic Impurities by HPLC: RRT 0.97,"[4]; 40° C./75% RH, 6 months",0.52 % Area
same,Organic Impurities by HPLC: RRT 0.99,"[4]; 40° C./75% RH, 6 months",0.58 % Area
same,Organic Impurities by HPLC: RRT 1.05,"[4]; 40° C./75% RH, 6 months",—
same,Organic Impurities by HPLC: RRT 1.06,"[4]; 40° C./75% RH, 6 months",0.08 % Area
same,Purity by HPLC,"[4]; 40° C./75% RH, 6 months",98.8 % area
same,Total Impurities,"[4]; 40° C./75% RH, 6 months",1.24 % area
same,Water Content by KF,"[4]; 40° C./75% RH, 6 months",0.46 % w/w
same,XRPD,"[4]; 40° C./75% RH, 6 months",Crystalline
same,Appearance,"[4]; 40° C./75% RH, Initial",Pale
same,Assay by HPLC (% w/w. as is),"[4]; 40° C./75% RH, Initial",96.9 % w/w
same,Organic Impurities by HPLC: RRT 0.83,"[4]; 40° C./75% RH, Initial",0.06 % Area
same,Organic Impurities by HPLC: RRT 0.97,"[4]; 40° C./75% RH, Initial",0.55 % Area
same,Organic Impurities by HPLC: RRT 0.99,"[4]; 40° C./75% RH, Initial",0.62 % Area
same,Organic Impurities by HPLC: RRT 1.05,"[4]; 40° C./75% RH, Initial",0.15 % Area
same,Organic Impurities by HPLC: RRT 1.06,"[4]; 40° C./75% RH, Initial",0.11 % Area
same,Purity by HPLC,"[4]; 40° C./75% RH, Initial",98.5 % area
same,Total Impurities,"[4]; 40° C./75% RH, Initial",1.53 % area
same,Water Content by KF,"[4]; 40° C./75% RH, Initial",0.56 % w/w
same,XRPD,"[4]; 40° C./75% RH, Initial",Crystalline
same,gel formation,Gelling in aqueous media,does not form a gel
